Results from patent US20030130249A1, “Therapeutic use of estrogen receptor (ER)beta-selective agonists for triggering somatotropic, organotropic and anticatabolic effects (somatotropic therapy)” (Schering AG, priority 2001, published 2003).

Experiments:
Assay type in all cases: in vivo, rat
[1] = system: IGF-I in the plasma from sexually immature rats with intact ovaries; test: IGF-I in the plasma of sexually immature rats (FIG. 4); conditions: 7 days subcutaneous, two tests with different dose ranges
Source text: (§1) Effects of ERα- or ERβ-selective agonists (agon) on IGF-I in the plasma from sexually immature rats with intact ovaries in comparison to estradiol (E2). Treatment of the young animals after weaning over 7 days (day 1-day 7, autopsy day 8; subcutaneous injection) in two tests with different dose ranges.

[2] = system: adrenal glands and thymus of sexually immature rats with intact ovaries; test: Organ weights of adrenal glands and thymus of sexually immature rats (FIG. 6); conditions: 7 days subcutaneous
Source text: Effects of ERα- or ERβ-selective agonists (agon) on the development of the organ weights of the adrenal glands and the thymus of sexually immature rats with intact ovaries in comparison to estradiol (E2). Treatment of young animals after weaning over 7 days (day 1-day, 7, autopsy day 8, subcutaneous injection).

[3] = system: body growth of sexually immature rats whose ovaries are intact; test: Body growth of sexually immature rats (FIG. 7); conditions: immature rats with intact ovaries, 7 days subcutaneous
Source text: Effects of ERα- or ERβ-selective agonists (agon) on the body growth of sexually immature rats whose ovaries are intact in comparison to estradiol (E2). Treatment of the young animals after weaning over 7 days (day 1-day 7, autopsy day 8, subcutaneous injection) in two tests with different dose ranges.

[4] = system: cholesterol fractions in the plasma from sexually immature rats with intact ovaries; test: Cholesterol fractions in the plasma of sexually immature rats (FIG. 5); conditions: 7 days subcutaneous
Source text: as §1, with “the cholesterol fractions” for “IGF-I”, “8,” for “8;”

[5] = system: uterus of adult rats that have undergone ovariectomies; test: Uterotropic action in adult ovariectomized rats (FIG. 1); conditions: for dose giving increase in uterus weight ("standard" estrogenic activity): treatment day 1-day 3, autopsy day 4
Experimental: The substances that are to be used according to the invention have very little action in terms of “standard estrogens.” Corresponding estrogenic properties can be examined in the rats that have undergone ovariectomy. In the case of parenteral administration, 17β-estradiol even at a dose of 0.1 μg results in an increase in uterus weight. […] These substances have a correspondingly small action on the parameters of hepatic estrogeneity, for example the increase of the angiotensinogen in the blood. To examine the action of the ERβ-selective agonists in the context according to the invention, their estrogenic action on the genital tract, liver functions, somatotropic factors and on the secretion of gonadotropins was examined in comparison to estradiol in adult rats that have undergone ovariectomies. Determination of the uterotropic action of an ERα- or ERβ-selective agonist (agon) in comparison to estradnol (E2) Study of adult rats that have undergone ovariectomies 14 days after the ovariectomies, treatment day 1-day 3, autopsy day 4, subcutaneous administration in 0.2 ml of vehicle.

[6] = system: gonads of male and female, sexually immature rats; test: Effects on gonads and prostate of sexually immature rats (FIG. 3)
Experimental: ERβ-selective properties can be studied in the case of female and male rats that are not sexually mature. […] In the case of a parenteral dose of 1 μg/animal/day, estradiol results in a complete inhibition of testicular growth. […] The action on the somatotropic functions, gonad functions and the genital tract was studied in infant, gonad-intact, male and female rats. Effects of ERβ-agon or ERβ-selective agonists (agon) (E2) on gonads of male and female, sexually immature rats in comparison to estradiol. Treatment of the young animals after weaning over 7 days (day 1-day 7, autopsy day 8, subcutaneous injection).

[7] = Plasma levels after one-time oral or subcutaneous administration to ovariectomized rats, RIA (FIG. 8); conditions: one-time oral 1.0 mg or subcutaneous graduated dosages
Experimental: Plasma levels of the ERβ-selective agonist after a one-time oral or parenteral (subcutaneous injection) administration to ovariectomized rats, determinations 0.5; 1; 3; 6; 24 hours after oral administration of 1.0 mg (left) or 1; 2; 4; 6; 24 hours after subcutaneous administration of graduated dosages. Immunological determination by means of LCMS-validated Radio Immuno Assay (RIA).

[8] = system: uterus and vagina of ovary-intact, sexually immature rats; test: Effects on uterus and vagina in ovary-intact, sexually immature rats (FIG. 2); conditions: 7 days subcutaneous
Source text: The action on the somatotropic functions, gonad functions and the genital tract was studied in infant, gonad-intact, male and female rats. Effects of ERβ-agon or ERβ-selective agonists (agon) (E2) on the uterus and vagina in ovary-intact, sexually immature rats in comparison to estradiol. Treatment of the young animals after weaning over 7 days (day 1-day 7, autopsy day 8, subcutaneous injection) in two tests with different dose ranges.

| SMILES | IGF-I in the plasma [1] | adrenal gland weight [2] | thymus weight [2] | thymus weight at higher dosages ([2]; higher dosages) | body growth (weight increase) at higher dosages ([3]; higher dosages) | HDL-cholesterol fraction in the plasma at high doses ([4]; high doses) | total cholesterol in the plasma at high doses ([4]; high doses) | induction of uterus growth ([5]; subcutaneous, compared with ERβ-agon) | growth of the prostate ([6]; 7 days subcutaneous) | testicular growth ([6]; 7 days subcutaneous, autopsy day 8) | testicular growth at high doses ([6]; high doses, 7 days subcutaneous) | body growth ([3]; two tests with different dose ranges) | oral bioavailability (plasma levels) [7] | HDL-cholesterol fraction in the plasma ([4]; broad dose range) | total cholesterol in the plasma ([4]; broad dose range) | dose relative to estradiol for comparable uterotropic effect ([5]; parenteral, versus 0.1 μg of E2) | dose giving increase in uterus weight ("standard" estrogenic activity) ([5]; subcutaneous) | weight development of the uterus and vagina ([8]; autopsy day 8) | effects on uterus and vagina weight compared with ERα-agon and E2 ([8]; lowest tested dose) | dose giving complete inhibition of testicular growth ([6]; parenteral) |
| --- | --- | --- | --- | --- | --- | --- | --- | --- | --- | --- | --- | --- | --- | --- | --- | --- | --- | --- | --- | --- |
| C[C@]12CC[C@@H]3c4ccc(O)cc4CC[C@H]3[C@@H]1C[C@H]1OC(=O)C[C@]12O [ERα-agon, 3,17β-dihydroxy-19-nor-17α-pregna-1,3,5(10)-triene-21,16α-lactone, reference compound] | No comparable effects | less pronounced positive effects | less pronounced positive effects | reduction of the thymus weight | considerable reduction of the weight increase | drop the HDL-cholesterol fraction | drop the HDL-cholesterol fraction and the total cholesterol | induce uterus growth in the case of much lower dosage than the ERβ-agon | – | – | – | – | – | – | – | – | – | – | – | – |
| C=C[C@@]12CCc3cc(O)ccc3[C@H]1CC[C@@]1(C)[C@H]2CC[C@@H]1O [ERβ-agon, 8β-vinyl-1,3,5(10)-estratriene-3,17β-diol] | Statistically significant increase of the IGF-I | increase of adrenal gland weight | increase of adrenal gland weight and thymus weight | – | – | – | – | – | acceleration of the growth of the prostate | stimulates testicular growth beyond the normal size, which is statistically significant | inhibition of the testicular growth | accelerated growth of the animals via a broad dose range | orally readily bioavailable | increase of the HDL-cholesterol fraction | elevated plasma levels of the total cholesterol | 1000 fold | 100 µg | considerable effects on the weight development of the uterus and vagina in extremely low dosages | exceed those of ERα-agon, and E2 is statistically significant | – |
| C[C@]12CC[C@@H]3c4ccc(O)cc4CC[C@H]3[C@@H]1CC[C@@H]2O [E2, estradiol, reference compound] | – | – | – | – | – | – | – | – | – | – | – | – | – | – | – | – | 0.1 µg | – | – | 1 μg/animal/day |
